Laboratory results: ChEMBL document CHEMBL3885861, “Open TG-GATES”

Species on record: Rattus norvegicus
Assay: Open TG-GATES - Regimen: Daily Repeat
Type: toxicity, organism-based, Sprague-Dawley
Design: regimen Daily Repeat, gender Male, age 6 weeks
Conditions: in vivo, po, route gavage; for APTT / Bas / Eos / Fbg / Hb / Ht / Lym / MCH / MCHC / MCV / Mono / Neu / PT / Plat / RBC / Ret / WBC: tissue Blood; for KIDNEY_L / KIDNEY_R / KIDNEY_TOTAL: tissue Kidney; for LIVER: tissue Liver; for A/G / ALP / ALT / AST / BUN / CRE / Ca / Cl / DBIL / GLC / IP / K / LDH / Na / PL / RALB / TBIL / TC / TG / TP / gamma-GTP: tissue Plasma
[1] = 0 mg/kg, 72 h, dose level Control, time 3 day
[2] = 0 mg/kg, […], dose level Control, time 7 day
[3] = 0 mg/kg, […], dose level Control, time 14 day
[4] = 0 mg/kg, […], dose level Control, time 28 day
[5] = 50 mg/kg, 72 h, dose level Low, time 3 day
[6] = 50 mg/kg, […], dose level Low, time 7 day
[7] = 50 mg/kg, […], dose level Low, time 14 day
[8] = 50 mg/kg, […], dose level Low, time 28 day

## CC(=O)Oc1cc(C(C)C)c(OCCN(C)C)cc1C [MOXISYLYTE]
[1]
  TERMINAL_BW: 216.7 g
  APTT: 21.2 s
  Bas: 0%
  Eos: 1%
  Fbg: 327.4 mg/dL
  Hb: 13.7 g/dL
  Ht: 39.2%
  Lym: 81.2%
  MCH: 20.9 pg
  MCHC: 34.9%
  MCV: 59.9 fL
  Mono: 2.4%
  Neu: 14.2%
  PT: 16.5 s
  Plat: 116.4 x10_4/uL
  RBC: 655.4 x10_4/ul
  Ret: 6.2%
  WBC: 102.1 x10_2/uL
  KIDNEY_L: 0.9 g
  KIDNEY_R: 1 g
  KIDNEY_TOTAL: 1.9 g
  LIVER: 10.3 g
  A/G: 1.2
  ALP: 1472.6 IU/L
  ALT: 42.8 IU/L
  AST: 70.4 IU/L
  BUN: 17.2 mg/dL
  CRE: 0.2 mg/dL
  Ca: 10.8 mg/dL
  Cl: 106.6 meq/L
  DBIL: 0.004 mg/dL
  GLC: 181.4 mg/dL
  IP: 7 mg/dL
  K: 4.2 meq/L
  LDH: 202.6 IU/L
  Na: 142.4 meq/L
  PL: 154.2 mg/dL
  RALB: 3.1 g/dL
  TBIL: 0.014 mg/dL
  TC: 75.8 mg/dL
  TG: 97 mg/dL
  TP: 5.7 g/dL
  gamma-GTP: 1 IU/L
[2]
  TERMINAL_BW: 251.3 g
  APTT: 22.9 s
  Bas: 0%
  Eos: 0.6%
  Fbg: 294.6 mg/dL
  Hb: 13.6 g/dL
  Ht: 39%
  Lym: 81.4%
  MCH: 20.7 pg
  MCHC: 34.8%
  MCV: 59.5 fL
  Mono: 2%
  Neu: 15%
  PT: 15.6 s
  Plat: 119.6 x10_4/uL
  RBC: 656.8 x10_4/ul
  Ret: 5.1%
  WBC: 75.9 x10_2/uL
  KIDNEY_L: 1.1 g
  KIDNEY_R: 1.1 g
  KIDNEY_TOTAL: 2.1 g
  LIVER: 11.2 g
  A/G: 1.3
  ALP: 1660 IU/L
  ALT: 40.4 IU/L
  AST: 71.2 IU/L
  BUN: 18 mg/dL
  CRE: 0.2 mg/dL
  Ca: 10.7 mg/dL
  Cl: 106.6 meq/L
  DBIL: 0 mg/dL
  GLC: 189.2 mg/dL
  IP: 6.7 mg/dL
  K: 4.1 meq/L
  LDH: 219.2 IU/L
  Na: 142.6 meq/L
  PL: 155.2 mg/dL
  RALB: 3 g/dL
  TBIL: 0.004 mg/dL
  TC: 72.2 mg/dL
  TG: 138 mg/dL
  TP: 5.4 g/dL
  gamma-GTP: 1.4 IU/L
[3]
  TERMINAL_BW: 305.9 g
  APTT: 22.6 s
  Bas: 0%
  Eos: 1%
  Fbg: 308.2 mg/dL
  Hb: 15.1 g/dL
  Ht: 41.2%
  Lym: 79.4%
  MCH: 21.6 pg
  MCHC: 36.6%
  MCV: 59 fL
  Mono: 2%
  Neu: 16.4%
  PT: 16.1 s
  Plat: 118 x10_4/uL
  RBC: 699.2 x10_4/ul
  Ret: 5%
  WBC: 125 x10_2/uL
  KIDNEY_L: 1.2 g
  KIDNEY_R: 1.3 g
  KIDNEY_TOTAL: 2.5 g
  LIVER: 13.3 g
  A/G: 1.1
  ALP: 1709.2 IU/L
  ALT: 40 IU/L
  AST: 71.4 IU/L
  BUN: 20 mg/dL
  CRE: 0.2 mg/dL
  Ca: 10.7 mg/dL
  Cl: 106.2 meq/L
  DBIL: 0 mg/dL
  GLC: 197.6 mg/dL
  IP: 6 mg/dL
  K: 4.2 meq/L
  LDH: 170.8 IU/L
  Na: 141.4 meq/L
  PL: 148.4 mg/dL
  RALB: 3.1 g/dL
  TBIL: 0.008 mg/dL
  TC: 75.4 mg/dL
  TG: 114.6 mg/dL
  TP: 5.7 g/dL
  gamma-GTP: 1.4 IU/L
[4]
  TERMINAL_BW: 397.2 g
  APTT: 24 s
  Bas: 0%
  Eos: 1%
  Fbg: 320.8 mg/dL
  Hb: 14.4 g/dL
  Ht: 40.5%
  Lym: 82.2%
  MCH: 19.4 pg
  MCHC: 35.5%
  MCV: 54.7 fL
  Mono: 1.8%
  Neu: 13.5%
  PT: 15.9 s
  Plat: 100.5 x10_4/uL
  RBC: 741 x10_4/ul
  Ret: 3.1%
  WBC: 119.2 x10_2/uL
  KIDNEY_L: 1.5 g
  KIDNEY_R: 1.5 g
  KIDNEY_TOTAL: 3 g
  LIVER: 16.3 g
  A/G: 1.1
  ALP: 1031.5 IU/L
  ALT: 47.5 IU/L
  AST: 81.5 IU/L
  BUN: 17.5 mg/dL
  CRE: 0.2 mg/dL
  Ca: 10.3 mg/dL
  Cl: 104.5 meq/L
  DBIL: 0.0025 mg/dL
  GLC: 201.5 mg/dL
  IP: 6.9 mg/dL
  K: 4.1 meq/L
  LDH: 261 IU/L
  Na: 141 meq/L
  PL: 134.2 mg/dL
  RALB: 3 g/dL
  TBIL: 0.0025 mg/dL
  TC: 64.5 mg/dL
  TG: 116.5 mg/dL
  TP: 5.9 g/dL
  gamma-GTP: 1.5 IU/L
[5]
  TERMINAL_BW: 225.1 g
  APTT: 21.1 s
  Bas: 0%
  Eos: 1%
  Fbg: 329.8 mg/dL
  Hb: 13.7 g/dL
  Ht: 39.1%
  Lym: 80.6%
  MCH: 21.5 pg
  MCHC: 35%
  MCV: 61.5 fL
  Mono: 2.2%
  Neu: 14.6%
  PT: 16.2 s
  Plat: 126.9 x10_4/uL
  RBC: 635.6 x10_4/ul
  Ret: 6%
  WBC: 99.3 x10_2/uL
  KIDNEY_L: 1 g
  KIDNEY_R: 1 g
  KIDNEY_TOTAL: 1.9 g
  LIVER: 10.4 g
  A/G: 1.2
  ALP: 1826.8 IU/L
  ALT: 42.8 IU/L
  AST: 72.2 IU/L
  BUN: 16.2 mg/dL
  CRE: 0.2 mg/dL
  Ca: 11 mg/dL
  Cl: 106.4 meq/L
  DBIL: 0.004 mg/dL
  GLC: 178.8 mg/dL
  IP: 7.4 mg/dL
  K: 4.5 meq/L
  LDH: 242.8 IU/L
  Na: 141.4 meq/L
  PL: 158.8 mg/dL
  RALB: 3.1 g/dL
  TBIL: 0.004 mg/dL
  TC: 78.2 mg/dL
  TG: 108.8 mg/dL
  TP: 5.7 g/dL
  gamma-GTP: 1.2 IU/L
[6]
  TERMINAL_BW: 248.6 g
  APTT: 21.8 s
  Bas: 0%
  Eos: 0.6%
  Fbg: 312.6 mg/dL
  Hb: 13.7 g/dL
  Ht: 39.2%
  Lym: 79.6%
  MCH: 20.9 pg
  MCHC: 35.1%
  MCV: 59.5 fL
  Mono: 2.2%
  Neu: 16.8%
  PT: 15.9 s
  Plat: 122.1 x10_4/uL
  RBC: 659 x10_4/ul
  Ret: 4.9%
  WBC: 88.2 x10_2/uL
  KIDNEY_L: 1.1 g
  KIDNEY_R: 1.1 g
  KIDNEY_TOTAL: 2.2 g
  LIVER: 11.2 g
  A/G: 1.2
  ALP: 1475.2 IU/L
  ALT: 45 IU/L
  AST: 82.6 IU/L
  BUN: 16.6 mg/dL
  CRE: 0.2 mg/dL
  Ca: 10.6 mg/dL
  Cl: 106.6 meq/L
  DBIL: 0 mg/dL
  GLC: 179.4 mg/dL
  IP: 6.8 mg/dL
  K: 4.1 meq/L
  LDH: 202 IU/L
  Na: 141.6 meq/L
  PL: 146.6 mg/dL
  RALB: 3 g/dL
  TBIL: 0 mg/dL
  TC: 70.6 mg/dL
  TG: 144 mg/dL
  TP: 5.5 g/dL
  gamma-GTP: 1.2 IU/L
[7]
  TERMINAL_BW: 317.3 g
  APTT: 20.8 s
  Bas: 0%
  Eos: 1%
  Fbg: 308.8 mg/dL
  Hb: 14.2 g/dL
  Ht: 39.3%
  Lym: 77.8%
  MCH: 20.7 pg
  MCHC: 36.2%
  MCV: 57.2 fL
  Mono: 2.4%
  Neu: 18%
  PT: 16.1 s
  Plat: 108.1 x10_4/uL
  RBC: 686.8 x10_4/ul
  Ret: 5.1%
  WBC: 113.2 x10_2/uL
  KIDNEY_L: 1.3 g
  KIDNEY_R: 1.2 g
  KIDNEY_TOTAL: 2.5 g
  LIVER: 14 g
  A/G: 1.2
  ALP: 1349.4 IU/L
  ALT: 45.8 IU/L
  AST: 77.8 IU/L
  BUN: 19.8 mg/dL
  CRE: 0.2 mg/dL
  Ca: 10.8 mg/dL
  Cl: 107 meq/L
  DBIL: 0 mg/dL
  GLC: 186.6 mg/dL
  IP: 6.3 mg/dL
  K: 4.4 meq/L
  LDH: 256 IU/L
  Na: 141 meq/L
  PL: 156 mg/dL
  RALB: 3.2 g/dL
  TBIL: 0.002 mg/dL
  TC: 73.2 mg/dL
  TG: 184.6 mg/dL
  TP: 5.8 g/dL
  gamma-GTP: 1.4 IU/L
[8]
  TERMINAL_BW: 361 g
  APTT: 24.3 s
  Bas: 0%
  Eos: 1.2%
  Fbg: 324.8 mg/dL
  Hb: 14.9 g/dL
  Ht: 41.8%
  Lym: 84%
  MCH: 19.3 pg
  MCHC: 35.6%
  MCV: 54.3 fL
  Mono: 2%
  Neu: 12%
  PT: 16 s
  Plat: 101.5 x10_4/uL
  RBC: 770 x10_4/ul
  Ret: 2.5%
  WBC: 142.9 x10_2/uL
  KIDNEY_L: 1.4 g
  KIDNEY_R: 1.4 g
  KIDNEY_TOTAL: 2.8 g
  LIVER: 14.8 g
  A/G: 1
  ALP: 1078.4 IU/L
  ALT: 40.2 IU/L
  AST: 66.8 IU/L
  BUN: 17 mg/dL
  CRE: 0.2 mg/dL
  Ca: 10.4 mg/dL
  Cl: 106.6 meq/L
  DBIL: 0.002 mg/dL
  GLC: 184.4 mg/dL
  IP: 6.4 mg/dL
  K: 4.2 meq/L
  LDH: 147 IU/L
  Na: 142 meq/L
  PL: 151.2 mg/dL
  RALB: 3 g/dL
  TBIL: 0.002 mg/dL
  TC: 70 mg/dL
  TG: 170.4 mg/dL
  TP: 6 g/dL
  gamma-GTP: 2 IU/L
